Measured values as given in ChEMBL document CHEMBL1201862, “PubChem BioAssay data set” (2004).
Calls of active or inactive are those of the source.

What was measured:
[1] = cells; type: functional, cell-based
[2] = cells; type: functional, cell-based; remark: listed apart in the source
[3] = tested on: Escherichia coli; assay: microbe, parasite or virus in culture
[4] = target: T1, Microphthalmia-associated transcription factor (Homo sapiens, UniProt O75030); assay: TRPM1 promoter luciferase signal decrease, dose response, MITF inhibitor project, cell-based, SK-MEL-5, cherry-picked, set 3 (AID 493073); type: functional
T1 sequence (O75030 whole entry): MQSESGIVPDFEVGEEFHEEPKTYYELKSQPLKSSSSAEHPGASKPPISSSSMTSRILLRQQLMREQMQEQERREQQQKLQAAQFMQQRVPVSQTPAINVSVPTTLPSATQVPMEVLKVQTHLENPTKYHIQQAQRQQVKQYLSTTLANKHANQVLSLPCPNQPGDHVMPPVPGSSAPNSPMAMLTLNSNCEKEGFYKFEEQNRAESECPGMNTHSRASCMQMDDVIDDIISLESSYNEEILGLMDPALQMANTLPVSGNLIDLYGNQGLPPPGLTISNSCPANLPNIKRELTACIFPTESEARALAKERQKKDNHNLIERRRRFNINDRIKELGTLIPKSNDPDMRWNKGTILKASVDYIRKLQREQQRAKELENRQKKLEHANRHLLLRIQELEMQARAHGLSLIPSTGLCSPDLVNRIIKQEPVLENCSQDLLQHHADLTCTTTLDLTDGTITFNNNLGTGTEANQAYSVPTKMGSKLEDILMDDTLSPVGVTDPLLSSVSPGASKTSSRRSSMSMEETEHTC

[5] = tested on: A-375; assay: A375 melanoma cell viability reduction, dose response, counter-screen for MITF modulator project, cherry-pick samples, set 2 (AID 540335); type: functional, cell-based; conditions: Homo sapiens
[6] = target: Eukaryotic translation initiation factor 4E (Mus musculus, UniProt P63073); assay: eIF4E–eIF4G protein interaction inhibitors, dose response, biochemical, TR-FRET (AID 855); type: functional;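 further: potency for disrupting eIF4E binding to eIF4GI seen as loss of FRET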
[7] = target: Cytochrome P450 2C19 (Homo sapiens, UniProt P33261); assay: Cytochrome panel assay with activity outcomes. Panel member name: p450-cyp2c19 Compounds with AC50 equal or less than 10 uM are considered active; type: functional; conditions: read-out: AC50
[8] = target: Cytochrome P450 3A4 (Homo sapiens, UniProt P08684);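 further: CYP3A4 tested as one member of a cytochrome P450 panel screen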
[9] = target: Cytochrome P450 2C9 (Homo sapiens, UniProt P11712)
[10] = target: T2, Cytochrome P450 1A2 (Homo sapiens, UniProt P05177);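 further: PubChem cytochrome P450 panel assay, CYP1A2 panel member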
T2 sequence (P05177 whole entry): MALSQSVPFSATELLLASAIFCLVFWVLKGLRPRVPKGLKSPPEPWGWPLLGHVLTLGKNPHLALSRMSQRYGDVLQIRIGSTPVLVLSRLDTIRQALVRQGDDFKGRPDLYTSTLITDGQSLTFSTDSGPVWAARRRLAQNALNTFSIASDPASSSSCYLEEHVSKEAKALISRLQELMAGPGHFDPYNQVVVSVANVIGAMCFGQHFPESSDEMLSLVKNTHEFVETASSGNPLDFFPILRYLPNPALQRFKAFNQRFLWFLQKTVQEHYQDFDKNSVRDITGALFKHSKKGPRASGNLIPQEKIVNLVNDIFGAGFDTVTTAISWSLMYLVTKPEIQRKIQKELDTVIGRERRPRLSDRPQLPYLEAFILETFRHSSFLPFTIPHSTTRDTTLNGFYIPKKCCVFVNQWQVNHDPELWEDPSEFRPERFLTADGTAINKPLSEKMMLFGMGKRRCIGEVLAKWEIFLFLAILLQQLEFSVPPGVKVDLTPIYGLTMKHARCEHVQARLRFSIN

[11] = A Cell Based Secondary Assay To Explore Cytotoxicity of Compounds that Sensitize Mycobacterium Tuberculosis to Beta-Lactam Antibiotics.; type: functional

Cytochrome P450 3A4, sequence (P08684 whole entry): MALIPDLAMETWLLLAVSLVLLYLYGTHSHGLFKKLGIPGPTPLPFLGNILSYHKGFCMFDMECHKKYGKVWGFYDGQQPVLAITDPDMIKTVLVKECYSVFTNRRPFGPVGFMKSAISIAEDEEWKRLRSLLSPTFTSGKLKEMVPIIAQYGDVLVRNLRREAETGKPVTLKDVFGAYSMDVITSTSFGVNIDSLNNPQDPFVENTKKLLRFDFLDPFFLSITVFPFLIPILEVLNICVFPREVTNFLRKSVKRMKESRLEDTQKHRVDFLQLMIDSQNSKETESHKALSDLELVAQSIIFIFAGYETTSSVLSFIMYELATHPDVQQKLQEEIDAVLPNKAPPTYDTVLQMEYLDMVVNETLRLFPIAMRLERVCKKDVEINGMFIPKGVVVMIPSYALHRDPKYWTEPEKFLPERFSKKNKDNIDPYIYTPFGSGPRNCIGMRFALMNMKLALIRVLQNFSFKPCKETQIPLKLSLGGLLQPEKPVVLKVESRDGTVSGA
Eukaryotic translation initiation factor 4E, sequence (P63073 whole entry): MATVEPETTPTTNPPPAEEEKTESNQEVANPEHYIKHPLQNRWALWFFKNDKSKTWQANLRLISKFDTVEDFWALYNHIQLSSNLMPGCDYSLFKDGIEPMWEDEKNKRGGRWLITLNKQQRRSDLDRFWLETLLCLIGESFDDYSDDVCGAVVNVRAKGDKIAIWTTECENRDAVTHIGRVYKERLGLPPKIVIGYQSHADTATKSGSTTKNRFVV
Cytochrome P450 2C9, sequence (P11712 whole entry): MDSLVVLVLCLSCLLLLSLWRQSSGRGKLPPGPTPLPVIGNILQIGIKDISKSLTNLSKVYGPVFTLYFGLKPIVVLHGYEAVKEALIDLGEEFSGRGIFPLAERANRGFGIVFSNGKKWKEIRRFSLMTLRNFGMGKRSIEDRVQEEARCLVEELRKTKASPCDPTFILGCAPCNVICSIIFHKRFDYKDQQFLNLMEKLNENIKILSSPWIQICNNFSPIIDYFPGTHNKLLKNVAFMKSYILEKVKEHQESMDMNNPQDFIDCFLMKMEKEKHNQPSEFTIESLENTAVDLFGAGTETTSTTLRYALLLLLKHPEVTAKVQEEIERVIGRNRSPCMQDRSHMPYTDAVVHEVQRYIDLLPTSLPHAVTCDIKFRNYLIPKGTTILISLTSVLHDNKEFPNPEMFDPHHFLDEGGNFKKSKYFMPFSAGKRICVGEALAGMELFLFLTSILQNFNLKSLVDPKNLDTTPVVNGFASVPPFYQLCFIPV
Cytochrome P450 2C19, sequence (P33261 whole entry): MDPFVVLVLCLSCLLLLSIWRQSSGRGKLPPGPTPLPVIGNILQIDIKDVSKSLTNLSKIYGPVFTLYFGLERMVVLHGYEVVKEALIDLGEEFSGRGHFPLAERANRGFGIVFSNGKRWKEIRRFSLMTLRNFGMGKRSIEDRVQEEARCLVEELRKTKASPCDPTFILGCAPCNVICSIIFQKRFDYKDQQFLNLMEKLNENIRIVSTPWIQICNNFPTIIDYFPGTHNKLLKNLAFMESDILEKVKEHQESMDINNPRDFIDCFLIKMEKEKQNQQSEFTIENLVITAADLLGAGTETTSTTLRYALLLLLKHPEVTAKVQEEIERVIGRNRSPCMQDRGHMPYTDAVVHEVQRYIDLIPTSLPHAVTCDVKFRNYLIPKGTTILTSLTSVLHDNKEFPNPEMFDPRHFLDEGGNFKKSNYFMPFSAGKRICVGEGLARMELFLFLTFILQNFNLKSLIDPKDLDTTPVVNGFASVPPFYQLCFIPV

## O=S(=O)(/C=C/c1ccccc1)N1CCNCC1
[1]
  EC50: > 350 µM (not active)
[2]
  EC50: > 350 µM (not active)

## CCC(CC)C(=O)Nc1nnc(S(=O)(=O)N2CCCCCC2)s1
[3]
  AC50: 29.7 µM (active)

## COc1ccc(C(CC(=O)NCc2ccccc2)Sc2n[nH]c(-c3ccccc3)n2)cc1 (stereo not drawn)
[1]
  EC50: > 350 µM (not active)
[2]
  EC50: > 350 µM (not active)

## COC(=O)C1=C(C)N(Cc2ccccc2)C(NCc2ccccc2)=N[C@H]1c1ccccc1
[4]
  AC50: 18 µM (active)
[5]
  AC50: 23.7 µM (active)

## Cc1ccc(Nc2nc(Oc3ccc(=O)[nH]n3)nc(N(C)C)n2)cc1
[6]
  IC50: > 64 µM (inactive)

## CC1(C2CC2)NC(=O)NC1=O (stereo not drawn)
[6]
  IC50: > 64 µM (inactive)

## COc1ccc(Oc2nc(C)cc(C)c2S(C)(=O)=O)cc1
[7]
  AC50: 25.1 µM (inconclusive)
[8]
  AC50: inconclusive
[9]
  AC50: 15.8 µM (inconclusive)
[10]
  AC50: 11.2 µM (inconclusive)

## CCC(CC)c1nnc(NC(=O)COc2ccc3c(C)cc(=O)oc3c2)s1
[8]
  AC50: inconclusive
[9]
  AC50: 7.08 µM (inconclusive)

## O=C(Cc1cccc2ccccc12)N/N=C/c1ccc(OC(=O)/C=C/c2ccco2)cc1
[11]
  CC50: 31.2 µM (active)

## C/C(=N\O)C(=O)Nc1ccccc1
[1]
  EC50: > 350 µM (not active)
[2]
  EC50: > 350 µM (not active)
